# Target: T1, active p38 alpha enzyme (Upstate Biotechnology) (Homo sapiens, UniProt Q16539)
# T1 construct: purchased Upstate Biotechnology
# Assay: p38α biochemical assay (ATP turnover, luminescent detection, Cambrex PKlight)
# Conditions: p38α biochemical assay, Table 1 Biological Activity
# How it was run: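 Compounds in DMSO are added to active p38 alpha with MapkapK2 whole protein and ATP at 1.4 uM final. Reactions then run for 2 hours at 30C. A luminescent reagent is added last to quantify total ATP consumed.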
# T1 sequence (Q16539 whole entry): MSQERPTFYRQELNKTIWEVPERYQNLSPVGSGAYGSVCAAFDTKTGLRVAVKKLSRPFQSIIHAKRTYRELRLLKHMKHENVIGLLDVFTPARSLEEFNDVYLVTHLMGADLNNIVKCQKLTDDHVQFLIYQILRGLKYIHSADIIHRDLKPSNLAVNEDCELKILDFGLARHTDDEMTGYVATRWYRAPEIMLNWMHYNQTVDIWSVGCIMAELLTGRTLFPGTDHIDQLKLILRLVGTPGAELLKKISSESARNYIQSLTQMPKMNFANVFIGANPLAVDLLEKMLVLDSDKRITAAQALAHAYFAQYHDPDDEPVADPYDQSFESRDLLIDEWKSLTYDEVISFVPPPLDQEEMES
row,IC50 [nM],Structure (SMILES)
1,≤ 1000,CC(C)NC(=O)c1csc(-c2oc(CN3CCN(C(=O)c4ccccc4-c4ccccc4)CC3)nc2-c2ccc(F)cc2)n1 [Example 504]
2,> 1000,CC(C)NC(=O)c1csc(-c2oc(CN3CCN(C(=O)c4cccc(Br)c4)CC3)nc2-c2ccc(F)cc2)n1 [Example 505]
3,> 1000,CC(C)NC(=O)c1csc(-c2oc(CN3CCN(C(=O)c4ccc(Br)cc4)CC3)nc2-c2ccc(F)cc2)n1 [Example 506]
4,≤ 1000,CC(C)NC(=O)c1csc(-c2oc(CN3CCN(C(=O)c4cccc(Cl)c4[N+](=O)[O-])CC3)nc2-c2ccc(F)cc2)n1 [Example 507]
5,≤ 1000,CC(C)NC(=O)c1csc(-c2oc(CN3CCN(C(=O)C4N=CC([N+](=O)[O-])=CC=C4Cl)CC3)nc2-c2ccc(F)cc2)n1 (stereo not shown) [Example 508]
6,> 1000,CC(C)NC(=O)c1csc(-c2oc(CN3CCN(C(=O)c4ccc([N+](=O)[O-])cc4Cl)CC3)nc2-c2ccc(F)cc2)n1 [Example 509]
7,> 1000,CC(C)NC(=O)c1csc(-c2oc(CN3CCN(C(=O)c4ccc(Cl)cc4[N+](=O)[O-])CC3)nc2-c2ccc(F)cc2)n1 [Example 510]
8,> 1000,CC(C)NC(=O)c1csc(-c2oc(CN3CCN(C(=O)c4ccc(Cl)c([N+](=O)[O-])c4)CC3)nc2-c2ccc(F)cc2)n1 [Example 511]
9,> 1000,CC(C)NC(=O)c1csc(-c2oc(CN3CCN(C(=O)c4cc(Cl)ccc4[N+](=O)[O-])CC3)nc2-c2ccc(F)cc2)n1 [Example 512]
10,> 1000,CC(C)NC(=O)c1csc(-c2oc(CN3CCN(C(=O)c4cccc(Br)n4)CC3)nc2-c2ccc(F)cc2)n1 [Example 513]
11,> 1000,CC(C)NC(=O)c1csc(-c2oc(CN3CCN(C(=O)c4cncc(Br)c4)CC3)nc2-c2ccc(F)cc2)n1 [Example 514]
12,≤ 1000,CC(C)NC(=O)c1csc(-c2oc(CN3CCN(C(=O)c4cc(F)c(F)cc4[N+](=O)[O-])CC3)nc2-c2ccc(F)cc2)n1 [Example 515]
13,≤ 1000,CC(C)NC(=O)c1csc(-c2oc(CN3CCN(C(=O)Cc4ccc(C(F)(F)F)cc4)CC3)nc2-c2ccc(F)cc2)n1 [Example 516]
14,≤ 1000,CC(C)Cc1ccc(C(C)C(=O)N2CCN(Cc3nc(-c4ccc(F)cc4)c(-c4nc(C(=O)NC(C)C)cs4)o3)CC2)cc1 (stereo not shown) [Example 517]
15,> 1000,CC(C)NC(=O)c1csc(-c2oc(CN3CCN(C(=O)c4cc(Cl)c(O)c(Cl)c4)CC3)nc2-c2ccc(F)cc2)n1 [Example 518]
16,≤ 1000,CC(C)NC(=O)c1csc(-c2oc(CN3CCN(C(=O)c4c(F)c(F)c(F)c(F)c4F)CC3)nc2-c2ccc(F)cc2)n1 [Example 519]
17,≤ 1000,COc1cc(OC)c(C(=O)N2CCN(Cc3nc(-c4ccc(F)cc4)c(-c4nc(C(=O)NC(C)C)cs4)o3)CC2)c(OC)c1 [Example 520]
18,≤ 1000,COc1cc(OC)c(C(=O)N2CCN(Cc3nc(-c4ccc(F)cc4)c(-c4nc(C(=O)NC(C)C)cs4)o3)CC2)cc1OC [Example 521]
19,> 1000,COc1cc(C(=O)N2CCN(Cc3nc(-c4ccc(F)cc4)c(-c4nc(C(=O)NC(C)C)cs4)o3)CC2)cc(OC)c1OC [Example 522]
20,≤ 1000,COc1ccc(C(=O)N2CCN(Cc3nc(-c4ccc(F)cc4)c(-c4nc(C(=O)NC(C)C)cs4)o3)CC2)c(OC)c1OC [Example 523]
21,≤ 1000,CC(C)NC(=O)c1csc(-c2oc(CN3CCN(C(=O)c4ccccc4Cc4ccccc4)CC3)nc2-c2ccc(F)cc2)n1 [Example 524]

row,IC50 [nM],Structure (SMILES)
1,> 1000,CC(C)NC(=O)c1csc(-c2oc(CN3CCN(C(=O)c4cccc(Oc5ccccc5)c4)CC3)nc2-c2ccc(F)cc2)n1 [Example 525]
2,> 1000,CC(C)NC(=O)c1csc(-c2oc(CN3CCN(C(=O)c4ccccc4Oc4ccccc4)CC3)nc2-c2ccc(F)cc2)n1 [Example 526]
3,≤ 1000,CC(C)NC(=O)c1csc(-c2oc(CN3CCN(C(=O)c4ccc(Oc5ccccc5)cc4)CC3)nc2-c2ccc(F)cc2)n1 [Example 527]
4,≤ 1000,CC(C)NC(=O)c1csc(-c2oc(CN3CCN(C(=O)c4ccc(-c5ccc(O)cc5)cc4)CC3)nc2-c2ccc(F)cc2)n1 [Example 528]
5,> 1000,Cc1cc(C(=O)N2CCN(Cc3nc(-c4ccc(F)cc4)c(-c4nc(C(=O)NC(C)C)cs4)o3)CC2)ccc1Br [Example 529]
6,> 1000,Cc1ccc(C(=O)N2CCN(Cc3nc(-c4ccc(F)cc4)c(-c4nc(C(=O)NC(C)C)cs4)o3)CC2)cc1Br [Example 530]
7,≤ 1000,CC(C)NC(=O)c1csc(-c2oc(CN3CCN(C(=O)Cc4ccc(Br)cc4)CC3)nc2-c2ccc(F)cc2)n1 [Example 531]
8,≤ 1000,CC(C)NC(=O)c1csc(-c2oc(CN3CCN(C(=O)C4CCCN4C(=O)OC(C)(C)C)CC3)nc2-c2ccc(F)cc2)n1 (stereo not shown) [Example 532]
9,> 1000,CC(C)NC(=O)c1csc(-c2oc(CN3CCN(C(=O)/C=C/c4ccccc4C(F)(F)F)CC3)nc2-c2ccc(F)cc2)n1 [Example 533]
10,≤ 1000,CCOc1ccc2ccccc2c1C(=O)N1CCN(Cc2nc(-c3ccc(F)cc3)c(-c3nc(C(=O)NC(C)C)cs3)o2)CC1 [Example 534]
11,> 1000,CC(C)NC(=O)c1csc(-c2oc(CN3CCN(C(=O)C(NC(=O)OC(C)(C)C)C(C)C)CC3)nc2-c2ccc(F)cc2)n1 (stereo not shown) [Example 535]
12,> 1000,CC(C)NC(=O)c1csc(-c2oc(CN3CCN(C(=O)C(NC(=O)OC(C)(C)C)C(C)C)CC3)nc2-c2ccc(F)cc2)n1 (stereo not shown) [Example 536]
13,> 1000,CC(C)NC(=O)c1csc(-c2oc(CN3CCN(C(=O)CCc4cccc(C(F)(F)F)c4)CC3)nc2-c2ccc(F)cc2)n1 [Example 537]
14,> 1000,CC1=NN(c2ccc(C(=O)N3CCN(Cc4nc(-c5ccc(F)cc5)c(-c5nc(C(=O)NC(C)C)cs5)o4)CC3)cc2)C(=O)C1 [Example 538]
15,> 1000,Cc1nc(Br)sc1C(=O)N1CCN(Cc2nc(-c3ccc(F)cc3)c(-c3nc(C(=O)NC(C)C)cs3)o2)CC1 [Example 539]
16,> 1000,CC(C)NC(=O)c1csc(-c2oc(CN3CCN(C(=O)c4c5ccccc5cc5ccccc45)CC3)nc2-c2ccc(F)cc2)n1 [Example 540]
17,> 1000,CC(C)NC(=O)c1csc(-c2oc(CN3CCN(C(=O)c4cc(C(C)C)cc(C(C)C)c4O)CC3)nc2-c2ccc(F)cc2)n1 [Example 541]
18,> 1000,CC(=O)NC(Cc1ccc(O)cc1)C(=O)N1CCN(Cc2nc(-c3ccc(F)cc3)c(-c3nc(C(=O)NC(C)C)cs3)o2)CC1 (stereo not shown) [Example 542]
19,> 1000,CC(C)NC(=O)c1csc(-c2oc(CN3CCN(C(=O)c4c(Cl)cc(Cl)cc4Cl)CC3)nc2-c2ccc(F)cc2)n1 [Example 543]
20,> 1000,COc1cc(C(=O)N2CCN(Cc3nc(-c4ccc(F)cc4)c(-c4nc(C(=O)NC(C)C)cs4)o3)CC2)c([N+](=O)[O-])cc1OC [Example 544]
21,> 1000,CC(C)NC(=O)c1csc(-c2oc(CN3CCN(C(=O)c4ccc(OCc5ccccc5)cc4)CC3)nc2-c2ccc(F)cc2)n1 [Example 545]

row,IC50 [nM],Structure (SMILES)
1,> 1000,CC(C)NC(=O)c1csc(-c2oc(CN3CCN(C(=O)CCc4ccccc4Br)CC3)nc2-c2ccc(F)cc2)n1 [Example 546]
2,> 1000,CC(C)NC(=O)c1csc(-c2oc(CN3CCN(C(=O)CCc4cccc(Br)c4)CC3)nc2-c2ccc(F)cc2)n1 [Example 547]
3,> 1000,CC(C)NC(=O)c1csc(-c2oc(CN3CCN(C(=O)C4CCCCN4C(=O)OC(C)(C)C)CC3)nc2-c2ccc(F)cc2)n1 (stereo not shown) [Example 548]
4,> 1000,CC(C)NC(=O)c1csc(-c2oc(CN3CCN(C(=O)c4ccc(Oc5cccc(O)c5)cc4)CC3)nc2-c2ccc(F)cc2)n1 [Example 549]
5,> 1000,COc1ccc2cc(C(C)C(=O)N3CCN(Cc4nc(-c5ccc(F)cc5)c(-c5nc(C(=O)NC(C)C)cs5)o4)CC3)ccc2c1 (stereo not shown) [Example 550]
6,> 1000,CC(C)NC(=O)c1csc(-c2oc(CN3CCN(C(=O)C4CN(C(=O)OC(C)(C)C)CCN4)CC3)nc2-c2ccc(F)cc2)n1 (stereo not shown) [Example 551]
7,> 1000,CC(C)NC(=O)c1csc(-c2oc(CN3CCN(C(=O)C4CN(C(=O)OC(C)(C)C)CCN4)CC3)nc2-c2ccc(F)cc2)n1 (stereo not shown) [Example 552]
8,> 1000,COc1ccc(Br)c(C(=O)N2CCN(Cc3nc(-c4ccc(F)cc4)c(-c4nc(C(=O)NC(C)C)cs4)o3)CC2)c1 [Example 553]
9,> 1000,CC(C)NC(=O)c1csc(-c2oc(CN3CCN(C(=O)C4CC(O)CN4C(=O)OC(C)(C)C)CC3)nc2-c2ccc(F)cc2)n1 (stereo not shown) [Example 554]
10,> 1000,CC(C)NC(=O)c1csc(-c2oc(CN3CCN(C(=O)C(C(C)C)N(C)C(=O)OC(C)(C)C)CC3)nc2-c2ccc(F)cc2)n1 (stereo not shown) [Example 555]
11,> 1000,CC(C)NC(=O)c1csc(-c2oc(CN3CCN(C(=O)c4ccc(C(F)(F)F)cc4[N+](=O)[O-])CC3)nc2-c2ccc(F)cc2)n1 [Example 556]
12,> 1000,CC(C)NC(=O)c1csc(-c2oc(CN3CCN(C(=O)c4cc(Br)ccc4Cl)CC3)nc2-c2ccc(F)cc2)n1 [Example 557]
13,> 1000,CC(C)NC(=O)c1csc(-c2oc(CN3CCN(C(=O)c4ccc(Cl)c(Br)c4)CC3)nc2-c2ccc(F)cc2)n1 [Example 558]
14,> 1000,CC(C)NC(=O)c1csc(-c2oc(CN3CCN(C(=O)c4ccccc4C(=O)c4ccc(O)cc4)CC3)nc2-c2ccc(F)cc2)n1 [Example 559]
15,> 1000,CC(C)NC(=O)c1csc(-c2oc(CN3CCN(C(=O)c4ccccc4C(=O)c4ccc(F)cc4)CC3)nc2-c2ccc(F)cc2)n1 [Example 560]
16,> 1000,CC(C)NC(=O)c1csc(-c2oc(CN3CCN(C(=O)C(C)c4ccc(-c5ccccc5)c(F)c4)CC3)nc2-c2ccc(F)cc2)n1 (stereo not shown) [Example 561]
17,> 1000,CC(C)NC(=O)c1csc(-c2oc(CN3CCN(C(=O)C4CCCN4C(=O)OCc4ccccc4)CC3)nc2-c2ccc(F)cc2)n1 (stereo not shown) [Example 564]
18,> 1000,CCC(C)C(NC(=O)OC(C)(C)C)C(=O)N1CCN(Cc2nc(-c3ccc(F)cc3)c(-c3nc(C(=O)NC(C)C)cs3)o2)CC1 (stereo not shown) [Example 565]
19,> 1000,CC(C)CC(NC(=O)OC(C)(C)C)C(=O)N1CCN(Cc2nc(-c3ccc(F)cc3)c(-c3nc(C(=O)NC(C)C)cs3)o2)CC1 (stereo not shown) [Example 566]

# From patent US20060252807A1, “Novel ortho-terphenyl inhibitors of p38 kinase and methods of treating inflammatory disorders” (Kalypsys, Inc., priority 2005, published 2006)
